The text below walks through data of ChEMBL document CHEMBL2176897, “Synthesis and biological evaluation (in vitro and in vivo) of cyclic arginine-glycine-aspartate (RGD) peptidomimetic-paclitaxel conjugates targeting integrin αVβ3” (J Med Chem, 2012).

A short description of data set [1]: Selectivity ratio of IC50 for integrin alphaVbeta5 receptor to IC50 for integrin alphaVbeta3 receptor.
Data set [2] concerns the target Integrin alpha-V/beta-5 (Homo sapiens, UniProt P06756+P18084). As to the kind of experiment: Competitive inhibition of biotinylated vitronectin to integrin alphaVbeta5 receptor after 3 hrs by microplate reader analysis. Type of data set: protein-complex assay.
Data set [3] has as its target Integrin alpha-V/beta-3 (Homo sapiens, UniProt P05106+P06756). As to the kind of experiment: Competitive inhibition of biotinylated vitronectin to integrin alphaVbeta3 receptor after 3 hrs by microplate reader analysis. Format: protein-complex assay.
The subject of data set [4] is IGROV-1. As to the kind of experiment: Cytotoxicity against cisplatin-resistant human IGROV1/Pt1 cells after 72 hrs by coulter counter analysis. Format: functional, cell-based. Particulars: IGROV-1, 72 h.
The subject of data set [5] is IGROV-1. Put plainly: Cytotoxicity against human IGROV1 cells after 72 hrs by coulter counter analysis. Format: functional, cell-based. Particulars: IGROV-1, 72 h.
For data set [6], the system named is PANC-1. As to the kind of experiment: Cytotoxicity against human PANC1 cells after 72 hrs by coulter counter analysis. To be noted: PANC-1, 72 h. Type of data set: functional, cell-based.
For data set [7], the system named is MIA PaCa-2. Put plainly: Cytotoxicity against human MIAPaCa2 cells after 72 hrs by coulter counter analysis. Format: functional, cell-based. To be noted: MIA PaCa-2, 72 h.
Data set [8] concerns U2OS. Put plainly: Cytotoxicity against human U2OS cells after 72 hrs by coulter counter analysis. Format: functional, cell-based.
Data set [9] has as its system SK-OV-3. Put plainly: Cytotoxicity against human SKOV3 cells after 72 hrs by coulter counter analysis. To be noted: SK-OV-3, 72 h. Format: functional, cell-based.
A short description of data set [10]: Cytostatic activity against human dermal fibroblasts assessed as growth inhibition at 64 to 1000 nM after 72 hrs by coulter counter analysis. To be noted: skin fibroblast, 1 µM.
For data set [11], the system named is IGROV-1. As to the kind of experiment: Antitumor activity against cisplatin-resistant human IGROV1/Pt1 cells overexpressing integrin alphaVbeta3 receptors xenografted in athymic Swiss mouse assessed as absence of disease at 30 mg/kg, iv administered every 4 days for 4 times measured up to 10 days. Further details: dose 30 mg/kg. Type of data set: functional, organism-based. In general terms: A xenograft is tissue or cells of one species grown in another, often human tumour cells in immunodeficient mice.

For data set [12], the system named is IGROV-1. As to the kind of experiment: Induction of abberant mitosis in cisplatin-resistant human IGROV1/Pt1 cells overexpressing integrin alphaVbeta3 receptors xenografted in athymic Swiss mouse at 30 mg/kg, iv measured 24 hrs post second treatment by hematoxylin and eosin staining. Type of data set: functional, organism-based. Further details: dose 30 mg/kg.

Data set [13] can be described thus: Antitumor activity against cisplatin-resistant human IGROV1/Pt1 cells overexpressing integrin alphaVbeta3 receptors xenografted in athymic Swiss mouse assessed as tumor volume inhibition at 30 mg/kg, iv administered every 4 days for 4 times measured after 10 days relative to control. Format: functional. Particulars: IGROV-1.
Data set [14] deals with Mus musculus. As to the kind of experiment: Toxicity in athymic Swiss mouse xenografted with cisplatin-resistant human IGROV1/Pt1 cells overexpressing integrin alphaVbeta3 receptors assessed as body weight loss at 30 mg/kg, iv administered every 4 days for 4 times. Format: organism-based, IGROV-1. Further details: dose 30 mg/kg, route intravenous. Particulars: in vivo, 96 h.

Data set [15] can be described thus: Antitumor activity against cisplatin-resistant human IGROV1/Pt1 cells overexpressing integrin alphaVbeta3 receptors xenografted in athymic Swiss mouse assessed as tumor killing at 30 mg/kg, iv administered every 4 days for 4 times. Type of data set: functional, IGROV-1.
In data set [16] the test system is IGROV-1. Put plainly: Induction of abberant mitosis in cisplatin-resistant human IGROV1/Pt1 cells overexpressing integrin alphaVbeta3 receptors xenografted in athymic Swiss mouse at 30 mg/kg, iv measured 24 hrs post fourth treatment by hematoxylin and eosin staining. Format: functional, organism-based. Further details: dose 30 mg/kg.
Data set [17] is described as follows: Half life of the compound in glucose phosphate buffer at pH 7. Format: physicochemical.

Activity calls are given as the source filed them. The calls are words filed in the database; no cut-off is given here.

In the case of `N=C(N)NCCC[C@@H]1NC(=O)C[C@@H]2C(=O)N[C@@H](CNC(=O)[C@H](CC(=O)O)NC(=O)CNC1=O)C(=O)N2Cc1ccccc1`, the Ratio IC50 in data set [1] came to 20. The figures for the IC50 in [2] and in [3] were 79 nM and 2.1 nM, respectively.

In the case of `N=C(N)NCCC[C@@H]1NC(=O)C[C@@H]2C(=O)N(Cc3ccccc3)[C@@H](CNC(=O)[C@H](CC(=O)O)NC(=O)CNC1=O)C(=O)N2Cc1ccccc1` (stereo in doubt; 7b), the half-inhibitory concentration (IC50) (in general, the concentration needed to halve the response being measured) in data set [3] is 0.2 nM.

Turning to `N=C(N)NCCC[C@@H]1NC(=O)C[C@H]2NC(=O)[C@H](CNC(=O)[C@H](CC(=O)O)NC(=O)CNC1=O)N(Cc1ccc(CN)cc1)C2=O.O=C(O)C(F)(F)F`, the IC50 in data set [4] is over 18000 nM; in data set [5] it was over 1200 nM; in data set [2], over 5000 nM; in data set [6], over 11600 nM; in data set [7], over 11600 nM; in [3], 26.4 nM. In addition, the IC50 in data set [8] was over 6300 nM; in [9] it was over 11600 nM. Moreover, the “growth inhibition (GI)” value in data set [10] is “Non-toxic”.

In data set [3], `N=C(N)NCCC[C@@H]1NC(=O)C[C@H]2C(=O)N(Cc3ccccc3)[C@H](CNC(=O)[C@H](CC(=O)O)NC(=O)CNC1=O)C(=O)N2Cc1ccccc1` displayed a half-inhibitory concentration (IC50) of 0.2 nM.

In the case of `N=C(N)NCCC[C@@H]1NC(=O)C[C@H]2C(=O)N[C@H](CNC(=O)[C@H](CC(=O)O)NC(=O)CNC1=O)C(=O)N2Cc1ccc(CNC(=O)CCC(=O)O)cc1`, the Ratio IC50 in [1] is 20.

In the case of `N=C(N)NCCC[C@@H]1NC(=O)C[C@H]2NC(=O)[C@H](CNC(=O)[C@H](CC(=O)O)NC(=O)CNC1=O)N(Cc1ccccc1)C2=O`, the Ratio IC50 in [1] was found to be 20. Moreover, the IC50 in data set [2] was 149 nM.

Take `N=C(N)NCCC[C@@H]1NC(=O)C[C@@H]2C(=O)N(Cc3ccccc3)[C@@H](CNC(=O)[C@H](CC(=O)O)NC(=O)CNC1=O)C(=O)N2Cc1ccccc1` (stereo in doubt; 7a): the half-maximal inhibitory concentration (IC50) in data set [3] came to 0.2 nM.

For `NC(N)=NCCC[C@@H]1NC(=O)C[C@@H]2NC(=O)[C@H](CNC(=O)[C@H](CC(=O)O)NC(=O)CNC1=O)N(Cc1ccccc1)C2=O`, the IC50 in data set [3] came out at 3.9 nM.

Consider `N=C(N)NCCC[C@@H]1NC(=O)[C@@H]2CC[C@H]3CCC[C@@H](NC(=O)[C@H](CC(=O)O)NC(=O)CNC1=O)C(=O)N32`, for which the Ratio IC50 in data set [1] was 20. For the same compound, the half-inhibitory concentration (IC50) in data set [2] is 1.4 nM; in data set [3] it was 1 nM.

Turning to `N=C(N)NCCC[C@@H]1NC(=O)C[C@H]2C(=O)N[C@H](CNC(=O)[C@H](CC(=O)O)NC(=O)CNC1=O)C(=O)N2Cc1ccccc1`, the Ratio IC50 in data set [1] worked out at 20. The values for the concentration for half-maximal inhibition (IC50) in data set [2] and in [3] were 216 nM and 7.6 nM, respectively.

For `CC(=O)O[C@H]1C(=O)[C@@]2(C)[C@H]([C@H](OC(=O)c3ccccc3)[C@]3(O)C[C@H](OC(=O)[C@H](O)[C@@H](NC(=O)c4ccccc4)c4ccccc4)C(C)=C1C3(C)C)[C@]1(OC(C)=O)CO[C@@H]1C[C@@H]2O` [PACLITAXEL], the half-inhibitory concentration (IC50) in data set [4] stood at 2.2 nM; in data set [5], 23 nM; in [6], 5.2 nM; in [7], 7.2 nM; in data set [8] it was 3.4 nM; in data set [9] it was 2.7 nM. For the same compound, the outcome in [11] and in data set [12] was Active. In [13], the inhibition in vivo (as a rule, the percentage by which the read-out fell short of the control) at 30 mg/kg was 76%. Besides, the Activity in [14] is 4%. Also, the LCK in data set [15] was determined as 0.7. Further, the result in data set [16] was inactive. Further, the “growth inhibition (GI)” value in data set [10] was “Non-toxic”.

With `N=C(N)NCCC[C@@H]1NC(=O)C[C@@H]2NC(=O)[C@@H](CNC(=O)[C@H](CC(=O)O)NC(=O)CNC1=O)N(Cc1ccccc1)C2=O`, the Ratio IC50 in data set [1] was determined as 20. Also, the IC50 turned out to be 114 nM in [2] and 3.2 nM in data set [3].

Take `CC(=O)O[C@H]1C(=O)[C@@]2(C)[C@H]([C@H](OC(=O)c3ccccc3)[C@]3(O)C[C@H](OC(=O)[C@H](OC(=O)CCC(=O)NCc4ccc(CN5C(=O)[C@H]6CNC(=O)[C@H](CC(=O)O)NC(=O)CNC(=O)[C@H](CCCN=C(N)N)NC(=O)C[C@H]5C(=O)N6)cc4)[C@@H](NC(=O)c4ccccc4)c4ccccc4)C(C)=C1C3(C)C)[C@]1(OC(C)=O)CO[C@@H]1C[C@@H]2O`: the IC50 is 3.7 nM in [4]; 34.4 nM in [5]; 76 nM in data set [2]; 3.2 nM in data set [6]; 1.8 nM in data set [7]; 0.9 nM in data set [3]. The IC50 in [8] was found to be 6.8 nM; in data set [9] it was 2.4 nM. In addition, the “growth inhibition (GI)” value in data set [10] was “Non-toxic”.

`CC(=O)O[C@H]1C(=O)[C@@]2(C)[C@H]([C@H](OC(=O)c3ccccc3)[C@]3(O)C[C@H](OC(=O)[C@H](OC(=O)CCC(=O)N[C@@H](CCC(=O)NCCCC[C@@H]4NC(=O)[C@@H](Cc5ccccc5)NC(=O)[C@H](CC(=O)O)NC(=O)CNC(=O)[C@H](CCCNC(=N)N)NC4=O)C(=O)NCCCC[C@@H]4NC(=O)[C@@H](Cc5ccccc5)NC(=O)[C@H](CC(=O)O)NC(=O)CNC(=O)[C@H](CCCNC(=N)N)NC4=O)[C@@H](NC(=O)c4ccccc4)c4ccccc4)C(C)=C1C3(C)C)[C@]1(OC(C)=O)CO[C@@H]1C[C@@H]2O`: in data set [17], the half-life (as a rule, the time in which the quantity being followed falls by half) was 2 h.

For `CC(=O)O[C@H]1C(=O)[C@@]2(C)[C@H]([C@H](OC(=O)c3ccccc3)[C@]3(O)C[C@H](OC(=O)[C@H](OC(=O)CCC(=O)NCc4ccc(CN5C(=O)[C@@H]6CNC(=O)[C@H](CC(=O)O)NC(=O)CNC(=O)[C@H](CCCNC(=N)N)NC(=O)C[C@@H]5C(=O)N6)cc4)[C@@H](NC(=O)c4ccccc4)c4ccccc4)C(C)=C1C3(C)C)[C@]1(OC(C)=O)CO[C@@H]1C[C@@H]2O`, the IC50 in [4] was found to be 2.4 nM; in data set [5], 48.2 nM; in data set [2], 22 nM; in [6] it was 3.5 nM; in [7], 2.5 nM; in data set [3], 1.1 nM. In addition, the IC50 in [8] was determined as 5.7 nM; in [9] it was 2.4 nM. The “growth inhibition (GI)” value in data set [10] was “Non-toxic”.

With `NC(N)=NCCC[C@@H]1NC(=O)C[C@H]2C(=O)N[C@H](CNC(=O)[C@H](CC(=O)O)NC(=O)CNC1=O)C(=O)N2Cc1ccc(CNC(=O)CCC(=O)O)cc1`, the values for the IC50 in data set [2] and in data set [3] were 75 nM and 4.1 nM, respectively.

As for `CC(=O)O[C@H]1C(=O)[C@@]2(C)[C@H]([C@H](OC(=O)c3ccccc3)[C@]3(O)C[C@H](OC(=O)[C@H](OC(=O)CCC(=O)NCc4ccc(CN5C(=O)[C@@H]6CC(=O)N[C@@H](CCCNC(=N)N)C(=O)NCC(=O)N[C@@H](CC(=O)O)C(=O)NC[C@@H]5C(=O)N6)cc4)[C@@H](NC(=O)c4ccccc4)c4ccccc4)C(C)=C1C3(C)C)[C@]1(OC(C)=O)CO[C@@H]1C[C@@H]2O`, the half-inhibitory concentration (IC50) is 18.7 nM in data set [4]; 17.7 nM in data set [5]; 518 nM in [2]; 5.8 nM in data set [6]; 2 nM in data set [7]; 8.5 nM in data set [3]. Besides, the IC50 in [8] worked out at 2.2 nM; in data set [9], 1.6 nM. Besides, the Ratio IC50 in data set [1] stood at 20. In addition, in [10], the “growth inhibition (GI)” value is on record as “Non-toxic”.
